Assay results from patent US10975056B2 (GlaxoSmithKline Intellectual Property Development Limited, priority 2016, dated 2021).
Read-outs that look alike come from different tables or passages of the source.

Experiments:
[1] = target: DNMT1 (Homo sapiens, UniProt P26358); assay: DNMT1 biochemical activity, breaklight assay and/or SPA assay
[2] = test system: erythroid progenitor cells (EPCs); assay: Fetal hemoglobin (HbF) ELISA in day 7 erythroid progenitor cells; assay type: cell-based, human; conditions: Homo sapiens, Erythroid progenitor cell, HbF ELISA, day 7 EPCs, 5 days; read-out: EPC ELISA (pEC50 category) (converted);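 note: for fetal hemoglobin induction normalized to vehicle-treated cells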
In short: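 HbF induction was read by anti-HbF sandwich ELISA (HRP/TMB, OD450) on lysates and normalized to vehicle-treated cells. Cells were day 7 erythroid progenitors derived from human bone marrow CD34+ cells, seeded at 1,000/well with 3 U/mL rhEPO. Compound was given for 5 days at 37 °C at final concentrations […].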

[3] = binned activity in either the breaklight or the SPA assay
[4] = binned activity in either the breaklight or the SPA assay, read-out: DNMT1 BioChemical (pIC50 category) (converted)

Chain of DNMT1 (P26358 whole entry, looked up): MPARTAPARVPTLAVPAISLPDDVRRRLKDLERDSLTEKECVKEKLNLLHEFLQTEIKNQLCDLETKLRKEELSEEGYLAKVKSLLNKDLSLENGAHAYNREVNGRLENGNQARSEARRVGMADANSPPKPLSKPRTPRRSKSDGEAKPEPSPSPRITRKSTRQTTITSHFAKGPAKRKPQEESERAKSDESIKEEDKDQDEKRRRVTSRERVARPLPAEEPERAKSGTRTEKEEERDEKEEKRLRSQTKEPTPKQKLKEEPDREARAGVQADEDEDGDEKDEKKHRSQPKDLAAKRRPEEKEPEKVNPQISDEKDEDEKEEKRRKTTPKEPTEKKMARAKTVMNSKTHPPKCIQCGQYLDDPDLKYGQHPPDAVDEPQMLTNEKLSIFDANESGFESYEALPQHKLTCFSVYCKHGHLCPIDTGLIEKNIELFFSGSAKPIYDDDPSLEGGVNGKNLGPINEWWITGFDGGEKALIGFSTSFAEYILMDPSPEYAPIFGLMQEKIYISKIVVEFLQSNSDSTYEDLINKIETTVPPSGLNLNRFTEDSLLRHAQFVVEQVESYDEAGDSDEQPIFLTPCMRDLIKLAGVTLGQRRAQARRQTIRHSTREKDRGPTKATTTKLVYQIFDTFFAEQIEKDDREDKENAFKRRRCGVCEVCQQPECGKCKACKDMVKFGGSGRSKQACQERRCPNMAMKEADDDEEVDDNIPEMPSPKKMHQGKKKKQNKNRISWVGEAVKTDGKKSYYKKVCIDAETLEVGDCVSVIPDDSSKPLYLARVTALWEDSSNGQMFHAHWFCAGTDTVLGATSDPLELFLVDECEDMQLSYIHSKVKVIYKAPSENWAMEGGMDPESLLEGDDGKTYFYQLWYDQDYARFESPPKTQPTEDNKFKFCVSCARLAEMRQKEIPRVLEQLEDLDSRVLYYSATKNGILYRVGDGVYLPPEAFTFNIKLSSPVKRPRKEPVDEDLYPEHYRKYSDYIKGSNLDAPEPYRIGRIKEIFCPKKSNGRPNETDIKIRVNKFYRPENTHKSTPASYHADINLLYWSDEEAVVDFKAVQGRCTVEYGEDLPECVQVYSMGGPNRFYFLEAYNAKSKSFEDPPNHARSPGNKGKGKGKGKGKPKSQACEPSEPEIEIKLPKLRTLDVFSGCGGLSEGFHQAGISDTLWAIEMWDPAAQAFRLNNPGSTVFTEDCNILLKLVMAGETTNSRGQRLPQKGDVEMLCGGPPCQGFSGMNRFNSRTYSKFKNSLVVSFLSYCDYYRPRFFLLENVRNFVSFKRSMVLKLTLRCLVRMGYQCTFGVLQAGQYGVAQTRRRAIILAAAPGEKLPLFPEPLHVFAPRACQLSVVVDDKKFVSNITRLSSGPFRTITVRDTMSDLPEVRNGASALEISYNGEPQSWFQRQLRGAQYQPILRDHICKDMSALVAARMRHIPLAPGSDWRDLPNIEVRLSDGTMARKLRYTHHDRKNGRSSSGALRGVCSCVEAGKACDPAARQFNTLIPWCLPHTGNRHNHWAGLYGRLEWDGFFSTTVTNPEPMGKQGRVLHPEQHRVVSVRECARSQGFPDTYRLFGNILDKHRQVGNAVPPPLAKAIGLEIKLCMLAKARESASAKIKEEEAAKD

| Compound | DNMT1 BioChemical (pIC50 category) [1, 3] | EC50 [2] | IC50 [1, 4] | average pIC50 against DNMT1 ([1]; breaklight assay and/or SPA assay, repeated experimental runs) | IC50 ([1]; breaklight assay and/or SPA assay, repeated experimental runs, read-out: average pIC50 against DNMT1 (converted)) |
| --- | --- | --- | --- | --- | --- |
| CCc1c(C#N)c(SC(C(N)=O)c2ccccc2)nc(N2CCOC(CN)C2)c1C#N (stereo not drawn) [Example 562, 2-((6-(2-(aminomethyl)morpholino)-3,5-dicyano-4-ethylpyridin-2-yl)thio)-2-phenylacetamide] | D (Category D: ≥6.5) | < 0.316 µM | – | > 6.5 | 0.0794 µM |
| CCc1c(C#N)c(SC(C(N)=O)c2ccccc2)nc(N2CCOC(CNC)C2)c1C#N (stereo not drawn) [Example 563, 2-((3,5-dicyano-4-ethyl-6-(2-((methylamino)methyl)morpholino)pyridin-2-yl)thio)-2-phenylacetamide] | D (Category D: ≥6.5) | < 0.316 µM | – | – | – |
| CCc1c(C#N)c(SC(C(N)=O)c2ccccc2)nc(N2CCO[C@H](CN)C2)c1C#N (stereo partly drawn) [Example 564, 2-((6-((R)-2-(aminomethyl)morpholino)-3,5-dicyano-4-ethylpyridin-2-yl)thio)-2-phenylacetamide] | D (Category D: ≥6.5) | < 0.316 µM | – | – | – |
| CCc1c(C#N)c(SC(C(N)=O)c2ccccc2)nc(N2CCCC(CN(C)C)C2)c1C#N (stereo not drawn) [Example 565, 2-((3,5-dicyano-6-(3-((dimethylamino)methyl)piperidin-1-yl)-4-ethylpyridin-2-yl)thio)-2-phenylacetamide] | – | < 0.316 µM | < 0.316 µM | – | – |
| CCc1c(C#N)c(SC(C(N)=O)c2ccccc2)nc(N2CCCC(CNC)C2)c1C#N (stereo not drawn) [Example 566, 2-((3,5-dicyano-4-ethyl-6-(3-((methylamino)methyl)piperidin-1-yl)pyridin-2-yl)thio)-2-phenylacetamide] | D (Category D: ≥6.5) | < 0.316 µM | – | – | – |
| CCc1c(C#N)c(SC(C(N)=O)c2ccccc2)nc(N2CCO[C@@H](CNCC(C)(C)C)C2)c1C#N (stereo partly drawn) [Example 567, 2-((3,5-dicyano-4-ethyl-6-((S)-2-((neopentylamino)methyl)morpholino)pyridin-2-yl)thio)-2-phenylacetamide] | D (Category D: ≥6.5) | < 0.316 µM | – | – | – |
| CCc1c(C#N)c(SC(C(N)=O)c2ccccc2)nc(N2CCC[C@@H](CNCC(C)(C)C)C2)c1C#N (stereo partly drawn) [Example 568, 2-((3,5-dicyano-4-ethyl-6-((S)-3-((neopentylamino)methyl)piperidin-1-yl)pyridin-2-yl)thio)-2-phenylacetamide] | D (Category D: ≥6.5) | < 0.316 µM | – | – | – |
| CCc1c(C#N)c(SCc2ccc(N(C)S(C)(=O)=O)cc2)nc(N2CCC(NCC(C)(C)C)CC2)c1C#N [Example 569, N-(4-(((3,5-dicyano-4-ethyl-6-(4-(neopentylamino)piperidin-1-yl)pyridin-2-yl)thio)methyl)phenyl)-N-methylmethanesulfonamide] | D (Category D: ≥6.5) | < 0.316 µM | – | – | – |
| CCc1c(C#N)c(SCc2ccc(N(C)S(C)(=O)=O)cc2)nc(N(C)CCN2CCCC2)c1C#N [Example 570, N-(4-(((3,5-dicyano-4-ethyl-6-(methyl(2-(pyrrolidin-1-yl)ethyl)amino)pyridin-2-yl)thio)methyl)phenyl)-N-methylmethanesulfonamide] | D (Category D: ≥6.5) | < 0.316 µM | – | – | – |
| CCc1c(C#N)c(SCc2ccc(N(C)S(C)(=O)=O)cc2)nc(N2CCOC(CN(C)C)C2)c1C#N (stereo not drawn) [Example 571, N-(4-(((3,5-dicyano-6-(2-((dimethylamino)methyl)morpholino)-4-ethylpyridin-2-yl)thio)methyl)phenyl)-N-methylmethanesulfonamide] | D (Category D: ≥6.5) | < 0.316 µM | – | – | – |
| CCc1c(C#N)c(SCc2ccc(N(C)S(C)(=O)=O)cc2)nc(N2CCC(NC(=O)C(C)(C)N)CC2)c1C#N [Example 572, 2-amino-N-(1-(3,5-dicyano-4-ethyl-6-((4-(N-methylmethylsulfonamido)benzyl)thio)pyridin-2-yl)piperidin-4-yl)-2-methylpropanamide] | D (Category D: ≥6.5) | < 0.316 µM | – | – | – |
| CCc1c(C#N)c(SCc2ccc(N(C)S(C)(=O)=O)cc2)nc(N2CCC(NC3CC3)CC2)c1C#N [Example 573, N-(4-(((3,5-dicyano-6-(4-(cyclopropylamino)piperidin-1-yl)-4-ethylpyridin-2-yl)thio)methyl)phenyl)-N-methylmethanesulfonamide] | D (Category D: ≥6.5) | < 0.316 µM | – | – | – |
| CCc1c(C#N)c(SCc2ccc(N(C)S(C)(=O)=O)cc2)nc(N2CCOC(CN3CCCC3)C2)c1C#N (stereo not drawn) [Example 574, N-(4-(((3,5-dicyano-4-ethyl-6-(2-(pyrrolidin-1-ylmethyl)morpholino)pyridin-2-yl)thio)methyl)phenyl)-N-methylmethanesulfonamide] | D (Category D: ≥6.5) | < 0.316 µM | – | – | – |
| CCc1c(C#N)c(SC(C(N)=O)c2ccccc2)nc(N2CCO[C@@H](CNC(=O)C(C)(C)N)C2)c1C#N (stereo partly drawn) [Example 575, 2-amino-N-(((2S)-4-(6-((2-amino-2-oxo-1-phenylethyl)thio)-3,5-dicyano-4-ethylpyridin-2-yl)morpholin-2-yl)methyl)-2-methylpropanamide] | D (Category D: ≥6.5) | < 0.316 µM | – | – | – |
| CCc1c(C#N)c(SC(C(N)=O)c2ccccc2)nc(N2CCC[C@@H](CN)C2)c1C#N (stereo partly drawn) [Example 576, 2-((6-((S)-3-(aminomethyl)piperidin-1-yl)-3,5-dicyano-4-ethylpyridin-2-yl)thio)-2-phenylacetamide] | – | < 0.316 µM | < 0.316 µM | – | – |
| CCc1c(C#N)c(SCc2ccc(N(C)S(C)(=O)=O)cc2)nc(N(C)CCN2CCCCC2)c1C#N [Example 577, N-(4-(((3,5-dicyano-4-ethyl-6-(methyl(2-(piperidin-1-yl)ethyl)amino)pyridin-2-yl)thio)methyl)phenyl)-N-methylmethanesulfonamide] | D (Category D: ≥6.5) | < 0.316 µM | – | – | – |
| CCc1c(C#N)c(SC(C(N)=O)c2ccccc2)nc(N2CCO[C@@H](CN)C2)c1C#N (stereo partly drawn) [Example 586, 2-((6-((S)-2-(aminomethyl)morpholino)-3,5-dicyano-4-ethylpyridin-2-yl)thio)-2-phenylacetamide] | D (Category D: ≥6.5) | < 0.316 µM | – | – | – |

Second part, led by results:

| DNMT1 BioChemical (pIC50 category) [1, 3] | EC50 [2] | IC50 [1, 4] | Compound | average pIC50 against DNMT1 ([1]; breaklight assay and/or SPA assay, repeated experimental runs) | IC50 ([1]; breaklight assay and/or SPA assay, repeated experimental runs, read-out: average pIC50 against DNMT1 (converted)) |
| --- | --- | --- | --- | --- | --- |
| D (Category D: ≥6.5) | < 0.316 µM | – | CCc1c(C#N)c(SC(C(N)=O)c2ccccc2)nc(N2CCO[C@H](CN(CC)CC)C2)c1C#N (stereo partly drawn) [Example 578, 2-((3,5-dicyano-6-((R)-2-((diethylamino)methyl)morpholino)-4-ethylpyridin-2-yl)thio)-2-phenylacetamide] | – | – |
| D (Category D: ≥6.5) | < 0.316 µM | – | CCc1c(C#N)c(SCc2ccc(N(C)S(C)(=O)=O)cc2)nc(N(C)CCN(CC)CC)c1C#N [Example 579, N-(4-(((3,5-dicyano-6-((2-(diethylamino)ethyl)(methyl)amino)-4-ethylpyridin-2-yl)thio)methyl)phenyl)-N-methylmethanesulfonamide] | – | – |
| D (Category D: ≥6.5) | < 0.316 µM | – | CCc1c(C#N)c(SCc2ccc(N(C)S(C)(=O)=O)cc2)nc(N2CCOC(CN(CC)CC)C2)c1C#N (stereo not drawn) [Example 580, N-(4-(((3,5-dicyano-6-(2-((diethylamino)methyl)morpholino)-4-ethylpyridin-2-yl)thio)methyl)phenyl)-N-methylmethanesulfonamide] | – | – |
| D (Category D: ≥6.5) | < 0.316 µM | – | CCc1c(C#N)c(SC(C(N)=O)c2ccccc2)nc(N2CCO[C@H](CNC(=O)C(C)(C)N)C2)c1C#N (stereo partly drawn) [Example 581, 2-amino-N-(((2R)-4-(6-((2-amino-2-oxo-1-phenylethyl)thio)-3,5-dicyano-4-ethylpyridin-2-yl)morpholin-2-yl)methyl)-2-methylpropanamide] | – | – |
| D (Category D: ≥6.5) | < 0.316 µM | – | CCc1c(C#N)c(SCc2ccc(N(C)S(C)(=O)=O)cc2)nc(N2CCC(N3CCCC3)CC2)c1C#N [Example 582, N-(4-(((3,5-dicyano-4-ethyl-6-(4-(pyrrolidin-1-yl)piperidin-1-yl)pyridin-2-yl)thio)methyl)phenyl)-N-methylmethanesulfonamide] | – | – |
| D (Category D: ≥6.5) | < 0.316 µM | – | CCc1c(C#N)c(SC(C(N)=O)c2ncccc2F)nc(N2CCC(N)CC2)c1C#N (stereo not drawn) [Example 583, 2-((6-(4-aminopiperidin-1-yl)-3,5-dicyano-4-ethylpyridin-2-yl)thio)-2-(3-fluoropyridin-2-yl)acetamide] | – | – |
| D (Category D: ≥6.5) | < 0.316 µM | – | CCc1c(C#N)c(SCc2ccc(N(C)S(C)(=O)=O)cc2)nc(N2CCC(NC(=O)[C@@H](C)N)CC2)c1C#N [Example 584, (R)-2-amino-N-(1-(3,5-dicyano-4-ethyl-6-((4-(N-methylmethylsulfonamido)benzyl)thio)pyridin-2-yl)piperidin-4-yl)propanamide] | – | – |
| D (Category D: ≥6.5) | < 0.316 µM | – | CCc1c(C#N)c(SCc2ccc(N(C)S(C)(=O)=O)cc2)nc(N2CCC(NC(=O)[C@H](C)N)CC2)c1C#N [Example 585, (S)-2-amino-N-(1-(3,5-dicyano-4-ethyl-6-((4-(N-methylmethylsulfonamido)benzyl)thio)pyridin-2-yl)piperidin-4-yl)propanamide] | – | – |
| D (Category D: ≥6.5) | < 0.316 µM | – | CCc1c(C#N)c(SCc2ccc(N(C)S(C)(=O)=O)cc2)nc(N2CCC(N)CC2)c1C#N [Example 587, N-(4-(((6-(4-aminopiperidin-1-yl)-3,5-dicyano-4-ethylpyridin-2-yl)thio)methyl)phenyl)-N-methylmethanesulfonamide] | – | – |
